pIC50: −log10 of the molar value.
Target: DNA-(apurinic or apyrimidinic site) endonuclease (Homo sapiens, UniProt P27695)
Experiment: Inhibition of APE-1 (unknown origin) using double-stranded AP-site containing DNA as substrate after 30 mins by fluorescence assay

DNA-(apurinic or apyrimidinic site) endonuclease, sequence (P27695 whole entry): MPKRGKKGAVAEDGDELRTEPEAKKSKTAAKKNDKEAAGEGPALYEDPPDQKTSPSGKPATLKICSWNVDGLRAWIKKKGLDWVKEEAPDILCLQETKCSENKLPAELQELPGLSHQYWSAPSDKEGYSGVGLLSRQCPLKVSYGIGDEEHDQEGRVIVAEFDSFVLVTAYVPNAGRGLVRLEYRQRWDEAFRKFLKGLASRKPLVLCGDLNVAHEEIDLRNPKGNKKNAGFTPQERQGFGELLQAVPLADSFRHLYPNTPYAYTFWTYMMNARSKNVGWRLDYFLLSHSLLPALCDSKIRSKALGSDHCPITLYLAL

Cn1nc(-c2ccccc2)c(O)c2c(=O)[nH]c(=N)nc1-2
pIC50: < 3.70
